Where two headings read alike, the source gives them in different places.
Target: T1, Syk kinase (Homo sapiens, UniProt P43405)
T1 construct: purchased
Assay: Syk kinase inhibition, Caliper LabChip off-chip mobility-shift kinase assay
Assay type: biochemical
Settings: read-out: Syk Enzyme IC50
In short: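 Purified Syk pre-incubated 15 min with compound in 100 mM HEPES pH 7.5, 1 mM DTT, 10 mM MgCl2 or MnCl2, 0.002% Brij-35, then 1.5 μM fluorescein peptide and ATP at apparent KM added; 1–1.5 h at room temperature, 4% DMSO, EDTA stop. Microfluidic mobility-shift product/substrate conversion gave % inhibition; IC50 from 12-point series (10–0.00003 μM) by 4-parameter fit.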

| SMILES | IC50 [nM] | IC50 (Caliper LabChip assay) [nM] |
| --- | --- | --- |
| COc1cncc(-c2cc3cc[nH]c(=O)c3c(Nc3ccc(C4CNC4)cc3)n2)n1 [compound 145] | 6 |  |
| C[C@@H]1CN(c2ccc(Nc3nc(/C=C/C(=O)O)cc4cc[nH]c(=O)c34)cn2)CCO1 [compound 241] | 208 |  |
| CCN1CCN(CCCc2ccc(Nc3nc(-c4cncc(OC)n4)cc4cc[nH]c(=O)c34)cc2)CC1 [compound 41] | 42 |  |
| COCCn1ccc2cc(Nc3cc(C)ccn3)nc(NC(C)C)c2c1=O [compound 314] | 237 |  |
| Cc1ccnc(Nc2cc3ccn(CCN4CCOCC4)c(=O)c3c(N[C@@H](C)CO)n2)c1 [compound 995] |  | 53 |
| CCC(C)(C)Nc1nc(-c2cnc(N)nc2)cc2cc[nH]c(=O)c12 [compound 893] |  | 43 |
| O=c1c2c(NCC(F)(F)F)nc(Nc3cc(Cl)ccn3)cc2ccn1CCO [compound 593] | 271 |  |
| Nc1ncc(-c2cc3cc[nH]c(=O)c3c(NC3CCC3)n2)cn1 [compound 453] | 162 |  |
| C=Cc1ccnc(Nc2cc3ccn(CCO)c(=O)c3c(NC(C)(C)C)n2)c1 [compound 858] |  | 46 |
| CC(C)(C)Nc1nc(Nc2cc(-c3cccnc3)ccn2)cc2ccn(CCO)c(=O)c12 [compound 828] |  | 72 |
| O=c1c2c(NCC(F)(F)F)nc(Nc3cnccn3)cc2ccn1CCO [compound 456] | 21.5 |  |
| CCn1ccc2cc(Nc3cc(C)ccn3)nc(Nc3ccc(C(=O)N4CCC(O)C4)cc3)c2c1=O (centres unmarked) [compound 836] |  | 119 |
| Cc1c2ccc(Nc3nc(Nc4cnccn4)cc4ccn(CCO)c(=O)c34)cc2nn1C [compound 656] |  | 168 |
| CNC(=O)C(C)(C)c1ccc(Nc2nc(-c3cnc4nccn4c3)cc3cc[nH]c(=O)c23)cc1 [compound 29] | 30 |  |
| O=c1[nH]ccc2cc(Nc3ccc(C(F)(F)F)cn3)nc(Nc3ccc(N4CCOCC4)cc3)c12 [compound 577] | 760 |  |
| CC(O)c1cc(Nc2cc3ccn(CCO)c(=O)c3c(NC(C)(C)C)n2)ncn1 (centres unmarked) [compound 727] |  | 30 |
| Cc1cc(Nc2nc(C(C)C)cc3cc[nH]c(=O)c23)ccc1N1CCO[C@H](C)C1 [compound 226] | 1740 |  |
| COc1cncc(-c2cc3cc[nH]c(=O)c3c(Nc3ccc(CCN4CCC(F)(F)CC4)cc3)n2)n1 [compound 44] | 638 |  |
| CC(C)(C)Nc1nc(Nc2cnccn2)cc2ccn(C3CS(=O)(=O)C3)c(=O)c12 [compound 1015] |  | 138 |
| Cc1cc(C)nc(Nc2cc3cc[nH]c(=O)c3c(Nc3ccc(C4CCN(C5CC5)CC4)c(C)c3)n2)c1 [compound 256] | 141 |  |
| CC(C)(C)Nc1nc(Nc2c[n+]([O-])ccn2)cc2ccn(C[C@@H](O)CO)c(=O)c12 [compound 675] |  | 6 |
| O=c1c2c(N[C@H]3CC[C@@H](O)CC3)nc(Nc3cnccn3)cc2ccn1CC(F)F [compound 1022] |  | 11 |

| SMILES | IC50 [nM] | IC50 (Caliper LabChip assay) [nM] |
| --- | --- | --- |
| O=c1[nH]ccc2cc(Nc3ccccn3)nc(Nc3ccc(N4CCOCC4)cc3)c12 [compound 509] | 143 |  |
| Cn1ccc2cc(Nc3cnccn3)nc(Nc3cccc(S(N)(=O)=O)c3)c2c1=O [compound 339] | 879 |  |
| CC(C)(C)Nc1nc(Nc2cc(CN3CCOCC3)ccn2)cc2ccn(CCO)c(=O)c12 [compound 603] |  | 56 |
| O=c1[nH]ccc2cc(Nc3ccccn3)nc(N3CCCC3)c12 [compound 279] | 1420 |  |
| COc1cncc(-c2cc3cc[nH]c(=O)c3c(Nc3ccc(CCN4CCN(C(C)C)CC4)cc3)n2)n1 [compound 21] | 86 |  |
| Cc1ccnc(Nc2cc3cc[nH]c(=O)c3c(NC(C)(C)CO)n2)c1 [compound 488] | 21 |  |
| Cn1ccc2cc(Nc3cnccn3)nc(NCC3CCCO3)c2c1=O (centres unmarked) [compound 475] | 139 |  |
| [2H]C([2H])([2H])n1ccc2cc(Nc3cc(C)ccn3)nc(N[C@@H](C)CO)c2c1=O [compound 398] | 46 |  |
| Nc1nc(Nc2cnccn2)cc2ccn(Cc3ccccc3)c(=O)c12 [compound 478] | 1630 |  |
| COCCOCC(=O)N1CCC(c2ccc(Nc3nc(-c4cncc(OC)n4)cc4cc[nH]c(=O)c34)cc2)CC1 [compound 27] | 44 |  |
| Cc1cc(Nc2nc(-c3cnn(CC(C)C)c3)cc3cc[nH]c(=O)c23)ccc1C1CCN(C2CC2)CC1 [compound 211] | 197 |  |
| Cc1cc(Nc2nc(Nc3ccc(C(F)(F)F)cn3)cc3cc[nH]c(=O)c23)ccc1N1CCO[C@H](C)C1 [compound 583] | 8440 |  |
| CCN1CCN(c2n[nH]c3cc(Nc4nc(-c5cncc(C(=O)N6CCOCC6)c5)cc5cc[nH]c(=O)c45)ccc23)CC1 [compound 206] | 60 |  |
| O=c1[nH]ccc2cc(Nc3ccccn3)nc(N3CCOCC3)c12 [compound 286] | 951 |  |
| CC(C)(C)Nc1nc(-c2cnc(N)nc2)cc2cc[nH]c(=O)c12 [compound 455] | 59 |  |
| CCn1ccc2cc(Nc3cc(C)ccn3)nc(N[C@@H]3CC[C@@H](CO)C3)c2c1=O [compound 790] |  | 88 |
| CCn1ccc2cc(Nc3cc(C)ccn3)nc(N[C@H]3CCC[C@H]3O)c2c1=O (racemic) [compound 360] | 67 |  |
| CC(C)(C)Nc1nc(Nc2cc(C3=CCCCC3)ncn2)cc2ccn(CCO)c(=O)c12 [compound 623] |  | 612 |
| Nc1ncc(-c2cc3ccn(CCO)c(=O)c3c(NC3CC3)n2)cn1 [compound 1035] |  | 38 |
| Nc1ncc(-c2cc3ccn(C[C@H](O)CO)c(=O)c3c(NC3CCCC3)n2)cn1 [compound 776] |  | 18 |
| CC(C)(C)Nc1nc(Nc2cnccn2)cc2ccn(Cc3ccccn3)c(=O)c12 [compound 1021] |  | 219 |

Now from value to compound:

| IC50 [nM] | IC50 (Caliper LabChip assay) [nM] | SMILES |
| --- | --- | --- |
| 54 |  | CCn1ccc2cc(Nc3cc(C)ccn3)nc(NC(C)(C)CO)c2c1=O [compound 492] |
|  | 21 | CCC(C)(C)Nc1nc(-c2cnc(N)nc2)cc2ccn(CCO)c(=O)c12 [compound 908] |
| 58 |  | O=c1[nH]ccc2cc(C3CCOCC3)nc(Nc3ccc(N4CCOCC4)cc3)c12 [compound 87] |
| 710 |  | O=c1[nH]ccc2cc(Nc3ccc([N+](=O)[O-])cn3)nc(Nc3ccc(N4CCOCC4)cc3)c12 [compound 565] |
| 94.4 |  | CCn1ccc2cc(Nc3cnccn3)nc(N[C@@H]3CCC[C@@H]3O)c2c1=O [compound 419] |
| 350 |  | Cn1ccc2cc(Nc3cnccn3)nc(Nc3ccc(C(=O)N4CCOCC4)cc3)c2c1=O [compound 476] |
| 3500 |  | CCN1CCC[C@H]1CNc1nc(Nc2cc(C)ccn2)cc2cc[nH]c(=O)c12 [compound 590] |
| 28 |  | O=c1[nH]ccc2cc(-c3cncnc3)nc(Nc3ccc(C4CCNCC4)c(F)c3)c12 [compound 194] |
|  | 18 | O=c1c2c(N[C@H]3CC[C@@H](O)CC3)nc(Nc3cnccn3)cc2ccn1CCCO [compound 948] |
| 2020 |  | Cc1cnc(Nc2cc3cc[nH]c(=O)c3c(Nc3ccc(C4CCN(C5CC5)CC4)c(C)c3)n2)cn1 [compound 248] |
| 25 |  | CCn1ccc2cc(Nc3cc(C)ccn3)nc(N[C@@H](C)CO)c2c1=O [compound 359] |
| 496 |  | Cc1ccnc(Nc2cc3ccn(C)c(=O)c3c(Nc3ccc(C4CCN(CCS(C)(=O)=O)CC4)cc3)n2)c1 [compound 311] |
|  | 590 | CC(C)(C)Nc1nc(Nc2cc(C3=CCCCO3)ncn2)cc2ccn(CCO)c(=O)c12 [compound 624] |
|  | 72 | Nc1ncc(-c2cc3ccn(CCN4CCOCC4)c(=O)c3c(N[C@H]3CC[C@@H](O)CC3)n2)cn1 [compound 1029] |
| 206 |  | Cc1ccnc(Nc2cc3cc[nH]c(=O)c3c(NC3CC3)n2)c1 [compound 535] |
|  | 431 | CO/N=C(\C)c1ccnc(Nc2cc3ccn(CCO)c(=O)c3c(NC(C)(C)C)n2)c1 [compound 695] |
|  | 34 | CC(C)(C)Nc1nc(Nc2cnccn2)cc2ccn(C(C)(C)C(N)=O)c(=O)c12 [compound 672] |

| IC50 [nM] | IC50 (Caliper LabChip assay) [nM] | SMILES |
| --- | --- | --- |
| 474 |  | CCN1CCN(CCc2ccc(Nc3nc(-c4cnc(OC)nc4)cc4c(F)c[nH]c(=O)c34)cc2)CC1 [compound 439] |
| 1220 |  | CC(=O)N1CCC(c2ccc(Nc3nc(Nc4cnccn4)cc4ccn(C)c(=O)c34)cc2)CC1 [compound 345] |
|  | 9 | Cn1ccc2cc(Nc3nccc(O)n3)nc(NC3CCC3)c2c1=O [compound 800] |
|  | 60 | CC(C)(C)Nc1nc(Nc2cc(/C=C/CCO)ncn2)cc2ccn(CCO)c(=O)c12 [compound 627] |
|  | 27 | Cc1nc(-c2ccnc(Nc3cc4ccn(CCO)c(=O)c4c(NC(C)(C)C)n3)c2)no1 [compound 873] |
| 387 |  | Cn1ccc2cc(Nc3cnccn3)nc(Nc3ccc(C4CCN(C5COC5)CC4)cc3)c2c1=O [compound 346] |
| 63 |  | Cn1ccc2cc(Nc3cnccn3)nc(N[C@H]3CCOC3)c2c1=O [compound 329] |
|  | 756 | CC(C)(C)Nc1nc(Nc2cc(C3CCCCO3)ncn2)cc2ccn(CCO)c(=O)c12 (centres unmarked) [compound 626] |
| 860 |  | O=c1[nH]ccc2cc(Nc3ccccn3)nc(N[C@@H]3CCC[C@H]3O)c12 (racemic) [compound 277] |
| 14 |  | O=c1c2c(N[C@H]3CCOC3)nc(Nc3cnccn3)cc2ccn1CCO [compound 375] |
|  | 32 | CC(C)n1ccc2cc(-c3cnc(N)nc3)nc(N[C@H]3CC[C@@H](O)CC3)c2c1=O [compound 1027] |
|  | 45.7 | [2H]C([2H])([2H])n1ccc2cc(Nc3cnccn3)nc(N[C@@H](C)CO)c2c1=O [compound 1050] |
| 1310 |  | CO/N=C(\C)c1cc2cc[nH]c(=O)c2c(Nc2ccc(N3CCO[C@H](C)C3)c(C)c2)n1 [compound 234] |
|  | 137 | [2H]C([2H])([2H])n1ccc2cc(Nc3cc(C)c(Cl)cn3)nc(NC(C)(C)CO)c2c1=O [compound 777] |
|  | 27 | O=c1c2c(NC3CC3)nc(Nc3cnccn3)cc2ccn1CCO [compound 818] |
|  | 12 | CC(C)(C)Nc1nc(Nc2cnccn2)cc2ccn(CCCO)c(=O)c12 [compound 1034] |
|  | 12 | COCC(COC)n1ccc2cc(Nc3cnccn3)nc(NC(C)(C)C)c2c1=O [compound 937] |

From US20110053897A1 (IRM LLC, priority 2009, published 2011)
